Laboratory results as given in PMC7463651, “Phase I/Ib Study of Tenalisib (RP6530), a Dual PI3K δ/γ Inhibitor in Patients with Relapsed/Refractory T-Cell Lymphoma” (Cancers, 2020).
Several values for one entry are separate records, joined by “and”; a condition that tells them apart may be missing. Equal values may be shown once.

Tested on: patients with relapsed/refractory T Cell Lymphoma
Assay: Safety assessment (adverse events per CTCAE v4.03, DLT/MTD) in phase I/Ib study
Format: in vivo, human
Description: Protocol defined hematological or non-hematological toxicity was considered dose-limiting if it occurred during the first cycle (within the first 28 d) and was considered related to Tenalisib. Hematological DLTs was defined as Grade 4 anemia; Grade 4 neutropenia for >7 days, or Grade ≥3 febrile neutropenia with fever >38.5 °C [101 °F]; Grade 4 thrombocytopenia for >7 days, or Grade ≥3 thrombocytopenia associated with Grade >2 bleeding.
Safety assessment included adverse event (AE) and serious adverse events (SAE) as per Common Terminology Criteria for Adverse Events (CTCAE), Version 4.03. During dose escalation, safety assessments were performed at weekly intervals during Cycle 1 and Cycle 2 and at two weekly intervals during Cycle 3 and 4. After completion of Cycle 4, safety assessments were performed on Day 1 of each subsequent cycle. In dose expansion phase, all safety assessments were performed on Day 1 of each cycle.

[1] = Relationship-all, Dose Expansion (N = 39)
[2] = Relationship-all, Total (N = 58)

CC[C@H](Nc1ncnc2[nH]cnc12)c1oc2ccccc2c(=O)c1-c1cccc(F)c1 [Tenalisib]
Pyrexia: patients with event [1]: 9 (23.1%) n (%)
Rash: count of events [1]: 6
Rash: patients with event [1]: 3 (7.7%) n (%)
Tachycardia: count of events [1]: 3
Tachycardia: patients with event [1]: 3 (7.7%) n (%)
Vomiting: count of events [1]: 6
Vomiting: patients with event [1]: 5 (12.8%) n (%)
Abdominal pain: count of events [2]: 9
Abdominal pain: patients with event [2]: 8 (13.8%) n (%)
Alanine aminotransferase increased: count of events [2]: 33
Alanine aminotransferase increased: patients with event [2]: 20 (34.5%) n (%)
Anemia: count of events [2]: 16
Anemia: patients with event [2]: 9 (15.5%) n (%)
Aspartate aminotransferase increased: count of events [2]: 37
Aspartate aminotransferase increased: patients with event [2]: 21 (36.2%) n (%)
Blood creatinine increased: count of events [2]: 7
Blood creatinine increased: patients with event [2]: 7 (12.1%) n (%)
Blood thyroid stimulating hormone increased: count of events [2]: 7
Blood thyroid stimulating hormone increased: patients with event [2]: 6 (10.3%) n (%)
Constipation: count of events [2]: 10
Constipation: patients with event [2]: 9 (15.5%) n (%)
Cough: count of events [2]: 16
Cough: patients with event [2]: 13 (22.4%) n (%)
Decreased appetite: count of events [2]: 13
Decreased appetite: patients with event [2]: 12 (20.7%) n (%)
Dehydration: count of events [2]: 18
Dehydration: patients with event [2]: 13 (22.4%) n (%)
Diarrhea: count of events [2]: 25
Diarrhea: patients with event [2]: 19 (32.8%) n (%)
Dizziness: count of events [2]: 12
Dizziness: patients with event [2]: 10 (17.2%) n (%)
Dry skin: count of events [2]: 8
Dry skin: patients with event [2]: 7 (12.1%) n (%)
Dyspnea: count of events [2]: 7
Dyspnea: patients with event [2]: 7 (12.1%) n (%)
Fatigue: count of events [2]: 27
Fatigue: patients with event [2]: 26 (45%) n (%) and 26 (44.8%) n (%)
Gamma-glutamyl transferase increased: count of events [2]: 11
Gamma-glutamyl transferase increased: patients with event [2]: 8 (13.8%) n (%)
Grade 3/4 Alanine aminotransferase increased: count of events [2]: 12
Grade 3/4 Alanine aminotransferase increased: patients with event [2]: 11 (19.0%) n (%)
Grade 3/4 Anemia: count of events [2]: 8
Grade 3/4 Anemia: patients with event [2]: 5 (8.6%) n (%)
Grade 3/4 Aspartate aminotransferase increased: count of events [2]: 12
Grade 3/4 Aspartate aminotransferase increased: patients with event [2]: 11 (19.0%) n (%)
Grade 3/4 Fatigue: count of events [2]: 4
Grade 3/4 Fatigue: patients with event [2]: 3 (5.2%) n (%)
Grade 3/4 Hyponatremia: count of events [2]: 4
Grade 3/4 Hyponatremia: patients with event [2]: 4 (6.9%) n (%)
Grade 3/4 Neutropenia: count of events [2]: 4
Grade 3/4 Neutropenia: patients with event [2]: 4 (6.9%) n (%)
Grade 3/4 Thrombocytopenia: count of events [2]: 3
Grade 3/4 Thrombocytopenia: patients with event [2]: 3 (5.2%) n (%)
Headache: count of events [2]: 13
Headache: patients with event [2]: 10 (17.2%) n (%)
Hypokalemia: count of events [2]: 10
Hypokalemia: patients with event [2]: 7 (12.1%) n (%)
Hyponatremia: count of events [2]: 9
Hyponatremia: patients with event [2]: 8 (13.8%) n (%)
Insomnia: count of events [2]: 7
Insomnia: patients with event [2]: 6 (10.3%) n (%)
Muscle spasms: count of events [2]: 10
Muscle spasms: patients with event [2]: 9 (15.5%) n (%)
Nausea: count of events [2]: 16
Nausea: patients with event [2]: 15 (25.9%) n (%)
Pruritus: count of events [2]: 10
Pruritus: patients with event [2]: 9 (15.5%) n (%)
Psychiatric disorders: count of events [2]: 18
Psychiatric disorders: patients with event [2]: 11 (19.0%) n (%)
Pyrexia: count of events [2]: 21
Pyrexia: patients with event [2]: 13 (22.4%) n (%)
Rash: count of events [2]: 10
Rash: patients with event [2]: 6 (10.3%) n (%)
Tachycardia: count of events [2]: 9
Tachycardia: patients with event [2]: 8 (13.8%) n (%)
Vomiting: count of events [2]: 11
Vomiting: patients with event [2]: 9 (15.5%) n (%)
Fatigue, most frequently reported TEAE (all patients): 45%
Transaminase elevations, most frequently reported related TEAE (all patients): 33%
Late onset toxicities like colitis, pneumonitis, and opportunistic infections (also in patients treated for more than six months): not seen
Alanine aminotransferase increased: count of events (human, in vivo): 13
Alanine aminotransferase increased: patients with event (human, in vivo): 6 (31.6%) n (%)
Anemia, Grade 3 TEAE (human, in vivo): 8.6%
Anemia: count of events (human, in vivo): 1
Anemia: patients with event (human, in vivo): 1 (5.3%) n (%)
Aspartate aminotransferase increased: count of events (human, in vivo): 15
Aspartate aminotransferase increased: patients with event (human, in vivo): 6 (31.6%) n (%)
Blood alkaline phosphatase increased: count of events (human, in vivo): 1
Blood alkaline phosphatase increased: patients with event (human, in vivo): 1 (5.3%) n (%)
Blood creatinine increased: patients with event (human, in vivo): 1 (5.3%) n (%)
Blood thyroid stimulating hormone increased: count of events (human, in vivo): 2
Blood thyroid stimulating hormone increased: patients with event (human, in vivo): 2 (10.5%) n (%)
Constipation: count of events (human, in vivo): 5
Constipation: patients with event (human, in vivo): 4 (21.1%) n (%)
Cough: count of events (human, in vivo): 7
Cough: patients with event (human, in vivo): 6 (31.6%) n (%)
Decreased appetite: count of events (human, in vivo): 5
Decreased appetite: patients with event (human, in vivo): 5 (26.3%) n (%)
Discontinuation due to adverse events (human, in vivo): 9%
Dry skin: count of events (human, in vivo): 2
Dry skin: patients with event (human, in vivo): 2 (10.5%) n (%)
Dyspepsia: count of events (human, in vivo): 1
Dyspepsia: patients with event (human, in vivo): 1 (5.3%) n (%)
Dyspnea: count of events (human, in vivo): 5
Dyspnea: patients with event (human, in vivo): 5 (26.3%) n (%)
Erythema: count of events (human, in vivo): 1
Erythema: patients with event (human, in vivo): 1 (5.3%) n (%)
Gamma-glutamyl transferase increased: count of events (human, in vivo): 2
Gamma-glutamyl transferase increased: patients with event (human, in vivo): 2 (10.5%) n (%)
Gamma-glutamyltransferase increased: count of events (human, in vivo): 2
Gamma-glutamyltransferase increased: patients with event (human, in vivo): 2 (10.5%) n (%)
Grade 3/4 Alanine aminotransferase increased: count of events (human, in vivo): 7
Grade 3/4 Alanine aminotransferase increased: patients with event (human, in vivo): 6 (15.4%) n (%)
Grade 3/4 Anemia: count of events (human, in vivo): 6
Grade 3/4 Anemia: patients with event (human, in vivo): 3 (7.7%) n (%)
Grade 3/4 Aspartate aminotransferase increased: count of events (human, in vivo): 8
Grade 3/4 Aspartate aminotransferase increased: patients with event (human, in vivo): 7 (17.9%) n (%)
Grade 3/4 Fatigue: count of events (human, in vivo): 3
Grade 3/4 Fatigue: patients with event (human, in vivo): 2 (5.1%) n (%)
Grade 3/4 Hyponatremia: count of events (human, in vivo): 2
Grade 3/4 Hyponatremia: patients with event (human, in vivo): 2 (5.1%) n (%)
Grade 3/4 Neutropenia: count of events (human, in vivo): 2
Grade 3/4 Neutropenia: patients with event (human, in vivo): 2 (5.1%) n (%)
Grade 3/4 Thrombocytopenia: count of events (human, in vivo): 2
Grade 3/4 Thrombocytopenia: patients with event (human, in vivo): 2 (5.1%) n (%)
Headache: count of events (human, in vivo): 4
Headache: patients with event (human, in vivo): 3 (15.8%) n (%)
Hypokalemia: count of events (human, in vivo): 5
Hypokalemia: patients with event (human, in vivo): 4 (21.1%) n (%)
Hyponatremia, Grade 3 TEAE (human, in vivo): 6.9%
Hyponatremia: count of events (human, in vivo): 4
Hyponatremia: patients with event (human, in vivo): 4 (21.1%) n (%)
Insomnia: count of events (human, in vivo): 3
Insomnia: patients with event (human, in vivo): 3 (15.8%) n (%)
Neutropenia, Grade 3 TEAE (human, in vivo): 6.9%
Neutropenia: count of events (human, in vivo): 2
Number of related ≥Grade 3 AEs (human, in vivo): 12
Patients discontinued because of TEAEs (human, in vivo): 14%
Patients with SAEs (human, in vivo): 22 (38%) n (%)
Patients with at least one TEAE (human, in vivo): 57 (98%) n (%)
Patients with related AEs (human, in vivo): 18 (64%) n (%)
Patients with related Grade 4 TEAEs (human, in vivo): 5.2%
Patients with related ≥Grade 3 AEs (human, in vivo): 9 (32%) n (%)
Pruritus: count of events (human, in vivo): 5
Pruritus: patients with event (human, in vivo): 4 (21.1%) n (%)
Psychiatric disorders: count of events (human, in vivo): 6
Psychiatric disorders: patients with event (human, in vivo): 4 (21.1%) n (%)
Pyrexia: count of events (human, in vivo): 4
Pyrexia: patients with event (human, in vivo): 4 (21.1%) n (%)
Rash: count of events (human, in vivo): 4
Rash: patients with event (human, in vivo): 3 (15.8%) n (%)
SAEs gastrointestinal disorders, patients (human, in vivo): 9%
SAEs related to infections, patients (human, in vivo): 16%
Tachycardia: count of events (human, in vivo): 6
Tachycardia: patients with event (human, in vivo): 5 (26.3%) n (%)
Transaminase elevation, related Grade ≥3 TEAE (human, in vivo): 21%
Deaths related to drug (in vivo): none of them were related to Tenalisib
Dose-limiting toxicities (DLT) (in vivo): no DLTs
Fatal outcome of related TEAEs (in vivo): None of the related TEAEs led to a fatal outcome
Grade 4 related TEAEs (in vivo): two events of ALT increase and one event of sepsis
Number of SAEs assessed to be related (in vivo): six
Number of SAEs reported (in vivo): Thirty-seven
Deaths reported in the study (seven deaths): 12%
